# Measured values taken from US8183364B2, “Substituted porphyrins” (Duke University, priority 2004, dated 2012).
# “Also recorded” adds a separate entry of the source. Where two headings read alike, the source gives them in different places.
# Assays:
# [1] = Electrochemistry: cyclic voltammetry of the Mn(III)/Mn(II) redox couple; assay type: physicochemical
# Method: Electrochemistry. Measurements were performed on a CH Instruments Model 600 Voltammetric Analyzer (Spasojevic and Batinic-Haberle, Inorg. Chim. Acta. 317:230-242 (2001), Batinic-Haberle et al, J. Biol. Chem. 273:24521-24528 (1998), Batinic-Haberle et al, Inorg. Chem. 38:4011-4022 (1999)). A three-electrode system in a small volume cell (0.5 mL to 3 mL), with a 3 mm-diameter glassy carbon button working electrode (Bioanalytical Systems), plus the Ag/AgCl reference and Pt auxiliary electrodes was used. Argon-purged solutions contained 0.05 M phosphate buffer, pH 7.8, 0.1 M NaCl, and 0.5 mM metalloporphyrin. The scan rates were 0.01-0.5 V/s, typically 0.1 V/s. The potentials were standardized against the potassium ferrocyanide/ferricyanide (Kolthof and Tomsicek, J. Phys. Chem. 39:945 (1935)) and/or against MnTE-2-PyP^5+ (Spasojevic and Batinic-Haberle, Inorg. Chim. Acta. 317:230-242 (2001), Batinic-Haberle et al, J. Biol. Chem. 273:24521-24528 (1998), Batinic-Haberle et al, Inorg. Chem. 38:4011-4022 (1999)).
# Electrochemistry. All cyclic voltammograms, ascribed to the Mn(III)/Mn(II) redox couple, are reversible. The E1/2 of di-ortho ethylimidazolylporphyrin, MnTDE-2-ImP^5+ is 118 mV more positive than of ortho ethylpyridylporphyrin, MnTE-2-PyP^5+ (+228 mV vs NHE), as a consequence of charge delocalization. A similar difference of 114 mV was seen between their methoxyethyl analogues. Mn porphyrins bearing N-pyridyl substituents of the same length, MnTnBu-PyP^5+ and MnTMOE-2-PyP^5+, have nearly identical E1/2 of +254 and +251 mV vs NHE, which is 26 and 23 mV higher than that of MnTE-PyP^5+.
# [2] = Catalysis of O2.^− dismutation by pulse radiolysis; assay type: biochemical; details: pulse radiolysis, pH 7.8, (22 ± 1) °C; kcat ±30%
# Method: Catalysis of O2.^− dismutation. The catalytic rate constants for the O2.^− dismutation were determined by pulse radiolysis in 0.05 M phosphate buffer (pH 7.8) at (22±1)° C. as previously described (Batinic-Haberle et al, Inorg. Chem. 40:726 (2001)). In the present study 10 mM formate was used as a scavenger for H. atoms and .OH radicals, which leads first to production of CO2.^− radicals and then to O2.^− radicals. This system is known to lead to conversion of all primary radicals of water radiolysis into O2.^−.
# Catalysis of O2.^− dismutation. Pulse radiolysis was used to assess the SOD-like activities of the Mn porphyrins studied. The initial concentration of O2.^− produced by the pulse was about 27 μM, and the concentration of the Mn porphyrin was between 0.5 and 5 μM. The dismutation of O2.^− was followed at 280 nm. The catalytic rate constant was determined from the linear dependence of kobs upon the concentration of the catalyst (Batinic-Haberle et al, Inorg. Chem. 40:726 (2001)). All the new compounds have high O2.^− dismuting ability. The magnitude of the catalysis is due to the interplay of the electron-withdrawing effects of quaternized ortho pyridyl or di-ortho imidazolyl groups, favorable electrostatics, and the solvation of the metal site.
# [3] = Thin-layer chromatography on silica gel (retention factor Rf, lipophilicity); assay type: physicochemical
# Method: Uv/vis spectra of porphyrin ligands and their Mn complexes were taken on a Shimadzu UV-2501-PC spectrophotometer at 25° C. Thin-layer chromatography of ligands and Mn complexes was done using silica gel plates with KNO3satH2O/H2O/acetonitrile=1/1/8.
# Thin-layer chromatography. All new methoxyporphyrins are more lipophilic than MnTE-2-PyP^5+ and MnTDE-2-ImP^5+.
# [4] = Oxidative degradation in the presence of ascorbic acid under aerobic conditions; assay type: physicochemical; details: pH 7.8 (0.05 M tris buffer)
# Method: Under these conditions porphyrins underwent oxidative degradation. As previously observed (Batinic-Haberle et al, J. Chem. Soc., Dalton Trans., pgs. 2689-2696 (2002)), those porphyrins that are of more positive E1/2 are stabilized in +2 oxidation state and are less prone to oxidative damage. Accordingly, 27% and 24% of MnTE-2-PyP^5+ and MnTMOE-2-PyP^5+ undergo degradation within 2 hours, but only 2% of MnTM,MOE-2-ImP^5+ and MnTDMOE-2-ImP^5+ and 3% of MnTDE-2-ImP^5+.
# [5] = test system: SOD-deficient JI132 E. coli; experiment: Aerobic growth of SOD-deficient E. coli; assay type: cell-based
# Method: (§1) Aerobic growth of E. coli. Bacterial strains of E. coli used were wild type AB1157 (F-thr-1 leu-1 proA2 his-4 argE3 thr-1 lacY1 galK2 rpsL supE44 ara-14 xyl-15 mtl-1 tsx-33) and SOD-deficient JI132 (same as AB1157 plus (sodA::mudPR13)25 (sodB-kan)1-Δ2. Culture media were prepared as follows. M9 medium: 6 g/L Na2HPO4, 3 g/L KH2PO4, 0.5 g/L NaCl, 1 g/L NH4Cl, 2 mM MgSO4, 0.1 mM CaCl2, adjusted to pH 7.4 with NaOH, and supplemented with 0.2% glucose, 3 mg/L each of D-panthotenic acid and thiamine. M9CA medium contained M9 medium plus 0.2% casamino acids. 5-amino acid (5AA) minimal medium contained M9 medium plus 0.5 mM each of threonine, leucine, histidine, proline and arginine (Faulkner et al, J. Biocl. Chem. 269:23471 (1994)).
# (§2) AB 1157 and 31132 were precultured overnight aerobically in M9CA medium at 37° C. and were then diluted to 3×10^7 cells/mL into 5 mL M9CA medium. JI132 was precultured in the presence of 20 μg/mL chloramphenicol and 500 μg/mL kanamycin. When the cells are transferred from M9CA medium to 5AA minimal medium cultures were first centrifuged and washed twice with the 5AA medium before final dilution in it. The centrifugation was conducted at room temperature to avoid temperature shocks. Cultures without and with Mn porphyrins (0.1 to 30 μM) were grown aerobically in 5 mL volume in test tubes in a thermostated orbital shaker (45° angle, 200 rpm) at 37° C.). Rates of growth were followed turbidimetrically at 700 nm to minimize interference from the absorbance of test compounds.
# [6] = stroke model; cited from earlier work
# [7] = given intravenously; cited from earlier work
# wild type AB1157 E. coli = experiment: Aerobic growth of wild type E. coli (toxicity); assay type: cell-based; details: for growth of wild type E. coli: 5AA minimal medium
# Method: as §1, §2
# [8] = cited from earlier work
# [9] = pH 7.8, (22 ± 1) °C; data from Batinic-Haberle et al 2002 (MnTE-2-PyP: Inorg. Chem. 40:726 (2001)); cited from earlier work
# [10] = data from Batinic-Haberle et al 2002, cited from earlier work
# [11] = previously observed (Batinic-Haberle et al 2002), compared with imidazolyl porphyrins; cited from earlier work
# [12] = pH 7.8; cited from earlier work
# [13] = silica gel TLC, KNO3-saturated H2O/H2O/acetonitrile = 1/1/8
# [14] = M9CA medium, range 0.1 to 30 μM
molecule,measurement,setting,value
"CCn1cc[n+](CC)c1-c1c2nc(c(-c3n(CC)cc[n+]3CC)c3ccc([n-]3)c(-c3n(CC)cc[n+]3CC)c3nc(c(-c4n(CC)cc[n+]4CC)c4ccc1[n-]4)C=C3)C=C2.[Mn+3] [MnTDE-2-ImP^5+, Mn(III) 5,10,15,20-tetrakis[N,N′-diethylimidazolium-2-yl]porphyrin]",E1/2 difference of imidazolyl porphyrin vs analogous pyridyl porphyrin,[1],more than 100 mV
same,Metal-centered redox potential E1/2,"[1]; Mn(III)/Mn(II), 0.1 M NaCl, 0.05 M phosphate buffer, pH 7.8, ±3 mV",+346 mV vs NHE
same,E1/2 more positive / higher than that of MnTE-2-PyP^5+,[1]; difference vs MnTE-2-PyP^5+ (+228 mV vs NHE),118 mV
same,log kcat for O2^− dismutation,[2],7.83
same,"Rf (compound path/solvent path), metal-free porphyrin (in parenthesis)","[3]; metal-free ligand of the named Mn porphyrin, silica gel TLC, KNO3-saturated H2O/H2O/acetonitrile = 1/1/8",0.23
same,"Rf (compound path/solvent path), Mn complex",[3]; [13],0.17
same,degradation within 2 hours,[4],3%
same,protection of SOD-deficient E. coli,"[5]; M9CA medium, 1 μM",low protection
same,protection of SOD-deficient E. coli,"[5]; M9CA medium, 3 μM",ineffective
same,protection of SOD-deficient E. coli,"[5]; M9CA medium, 30 μM",either much higher or near full protection
same,"facilitation of aerobic growth of SOD-deficient E. coli, dependence on concentration","[5]; M9CA medium, 1-30 μM",concentration-dependent manner
same,protection of E. coli from oxidative stress,[5]; ≦3 μM levels (FIG. 10: 5AA minimal medium),the least effective
same,neurotoxicity lower than the pyridyl compound (MnTE-2-PyP^5+),[6],16 fold
same,passing the spinal cord blood barrier compared to MnTE-2-PyP^5+,[7],less effective
same,protectiveness in spinal cord injury compared to MnTE-2-PyP^5+,[7],lacks protectiveness
CCCCCCCC[n+]1ccccc1-c1c2nc(c(-c3cccc[n+]3CCCCCCCC)c3ccc([n-]3)c(-c3cccc[n+]3CCCCCCCC)c3nc(c(-c4cccc[n+]4CCCCCCCC)c4ccc1[n-]4)C=C3)C=C2.[Mn+3] [MnTnOct-2-PyP^5+],lipophilicity higher than methyl porphyrin,"[3]; Rf, vs methyl porphyrin",~10 fold
same,"protection of SOD-deficient E. coli at 0.3 μM compared with 10 μM methyl, ethyl (and MnTDMOE-2-ImP) porphyrins","[5]; M9CA medium, 0.3 μM, listed as n-octyl",equally protective; also recorded: the same level of protection
same,concentration at which the compound facilitates growth of SOD-deficient strain (utility),[5]; [14],≤ 0.3 µM
same,protection of SOD-deficient E. coli higher than methyl porphyrin,[5]; vs methyl porphyrin,30 fold
same,toxicity to E. coli at 100-fold lower concentration,wild type AB1157 E. coli; 0.3 μM,mostly eliminated
same,growth of wild type E. coli,wild type AB1157 E. coli; 3 μM,completely inhibited growth
same,growth of wild type E. coli,wild type AB1157 E. coli; up to 25 μM,toxic
same,toxicity to wild type E. coli,"wild type AB1157 E. coli; M9CA medium, 30 μM (up to 30 μM), listed as n-octyl",prevented wild type E. coli to grow; also recorded: prevent wild type E. coli from growing
same,concentration at which toxicity on the parental (wild type) strain is exerted / becomes observable,wild type AB1157 E. coli; [14],300 nM
same,toxicity of metal-free vs Mn(III) complex,wild type AB1157 E. coli; separate experiment,equally toxic
same,Metal-centered redox potential E1/2,"[8]; Mn(III)/Mn(II), 0.1 M NaCl, 0.05 M phosphate buffer, pH 7.8, data from Batinic-Haberle et al 2002",+367 mV vs NHE
same,log kcat for O2^− dismutation,[9],7.71
same,"Rf (compound path/solvent path), metal-free porphyrin (in parenthesis)",[10]; metal-free ligand of the named Mn porphyrin,0.86
same,"Rf (compound path/solvent path), Mn complex",[10]; [13],0.08
same,stability towards oxidative degradation,[11],same level of stability
"Cu,Zn-SOD: superoxide dismutase enzyme",E1/2,[8]; literature value for the enzyme,~+300 mV vs NHE
same,equal rate constants of reduction and oxidation of O2.^−,[12],2e+09 M⁻¹ s⁻¹
